Source: PubChem BioAssay AID1259407 (Chemical Carcinogenesis Research Information System (CCRIS), 2018)
Active and inactive are the calls of the source. No rule for the calls is given here.

System: CCRIS mutagenicity, Ames/micronucleus/aberration tests
Assay: CCRIS mutagenicity studies

CCOc1ccc(NC(C)=O)cc1
mutagenic call (End Point: IN VITRO MICRONUCLEUS, Test System: CHL/IU CELLS, Metabolic Activation: RAT, LIVER, S-9, PHENOBARBITAL AND 5,6-BENZOFLAVONE): inactive; negative | mutagenic call (End Point: IN VITRO MICRONUCLEUS, Test System: RAT KIDNEY FIBROBLAST NRK-49F, Metabolic Activation: NONE): inactive; negative | mutagenic call (Test System: AMES SALMONELLA TYPHIMURIUM, Strain/Indicator: TA98, Metabolic Activation: GUINEA PIG, LIVER, S-9, PCB, Method: PREINCUBATION): inactive; negative | mutagenic call (Test System: AMES SALMONELLA TYPHIMURIUM, Strain/Indicator: TA98, Metabolic Activation: HAMSTER, LIVER, S-9, AROCLOR 1254, Method: STANDARD PLATE): inactive; negative | mutagenic call (Test System: AMES SALMONELLA TYPHIMURIUM, Strain/Indicator: TA98, Metabolic Activation: HAMSTER, LIVER, S-9, PCB, Method: PREINCUBATION): inactive; negative | mutagenic call (Test System: AMES SALMONELLA TYPHIMURIUM, Strain/Indicator: TA98, Metabolic Activation: MOUSE, LIVER, S-9, AROCLOR 1254, Method: STANDARD PLATE): inactive; negative | mutagenic call (Test System: AMES SALMONELLA TYPHIMURIUM, Strain/Indicator: TA98, Metabolic Activation: MOUSE, LIVER, S-9, PCB, Method: PREINCUBATION): inactive; negative | mutagenic call (Test System: AMES SALMONELLA TYPHIMURIUM, Strain/Indicator: TA98, Metabolic Activation: NONE, Method: PREINCUBATION): inactive; negative | mutagenic call (Test System: AMES SALMONELLA TYPHIMURIUM, Strain/Indicator: TA98, Metabolic Activation: NONE, Method: STANDARD PLATE): inactive; negative | mutagenic call (Test System: AMES SALMONELLA TYPHIMURIUM, Strain/Indicator: TA98, Metabolic Activation: RAT, LIVER, S-9, AROCLOR 1254, Method: STANDARD PLATE): inactive; negative | mutagenic call (Test System: AMES SALMONELLA TYPHIMURIUM, Strain/Indicator: TA98, Metabolic Activation: RAT, LIVER, S-9, PCB, Method: PREINCUBATION): inactive; negative | mutagenic call (Test System: AMES SALMONELLA TYPHIMURIUM, Strain/Indicator: TA100, Metabolic Activation: GUINEA PIG, LIVER, S-9, PCB, Method: PREINCUBATION): active; positive | mutagenic call (Test System: AMES SALMONELLA TYPHIMURIUM, Strain/Indicator: TA100, Metabolic Activation: HAMSTER, LIVER, S-9, AROCLOR 1254, Method: STANDARD PLATE): active; positive | mutagenic call (Test System: AMES SALMONELLA TYPHIMURIUM, Strain/Indicator: TA100, Metabolic Activation: HAMSTER, LIVER, S-9, KANECHLOR 400, Method: PREINCUBATION): active; positive | mutagenic call (Test System: AMES SALMONELLA TYPHIMURIUM, Strain/Indicator: TA100, Metabolic Activation: HAMSTER, LIVER, S-9, PCB, Method: PREINCUBATION): active; positive | mutagenic call (Test System: AMES SALMONELLA TYPHIMURIUM, Strain/Indicator: TA100, Metabolic Activation: HAMSTER, LIVER, S-9, Method: PREINCUBATION): inactive; negative | mutagenic call (Test System: AMES SALMONELLA TYPHIMURIUM, Strain/Indicator: TA100, Metabolic Activation: MOUSE, LIVER, S-9, AROCLOR 1254, Method: STANDARD PLATE): inactive; negative | mutagenic call (Test System: AMES SALMONELLA TYPHIMURIUM, Strain/Indicator: TA100, Metabolic Activation: MOUSE, LIVER, S-9, PCB, Method: PREINCUBATION): inactive; negative | mutagenic call (Test System: AMES SALMONELLA TYPHIMURIUM, Strain/Indicator: TA100, Metabolic Activation: NONE, Method: PREINCUBATION): inactive; negative | mutagenic call (Test System: AMES SALMONELLA TYPHIMURIUM, Strain/Indicator: TA100, Metabolic Activation: NONE, Method: STANDARD PLATE): inactive; negative | mutagenic call (Test System: AMES SALMONELLA TYPHIMURIUM, Strain/Indicator: TA100, Metabolic Activation: RAT, LIVER, S-9, AROCLOR 1254, Method: STANDARD PLATE): inactive; negative | mutagenic call (Test System: AMES SALMONELLA TYPHIMURIUM, Strain/Indicator: TA100, Metabolic Activation: RAT, LIVER, S-9, KANECHLOR 400, Method: PREINCUBATION): inactive; negative | mutagenic call (Test System: AMES SALMONELLA TYPHIMURIUM, Strain/Indicator: TA100, Metabolic Activation: RAT, LIVER, S-9, PCB, Method: PREINCUBATION): inactive; negative | mutagenic call (Test System: AMES SALMONELLA TYPHIMURIUM, Strain/Indicator: TA100, Metabolic Activation: RAT, LIVER, S-9, Method: PREINCUBATION): inactive; negative | mutagenic call (Test System: AMES SALMONELLA TYPHIMURIUM, Strain/Indicator: TA1535, Metabolic Activation: HAMSTER, LIVER, S-9, AROCLOR 1254, Method: STANDARD PLATE): inactive; negative | mutagenic call (Test System: AMES SALMONELLA TYPHIMURIUM, Strain/Indicator: TA1535, Metabolic Activation: MOUSE, LIVER, S-9, AROCLOR 1254, Method: STANDARD PLATE): inactive; negative | mutagenic call (Test System: AMES SALMONELLA TYPHIMURIUM, Strain/Indicator: TA1535, Metabolic Activation: NONE, Method: STANDARD PLATE): inactive; negative | mutagenic call (Test System: AMES SALMONELLA TYPHIMURIUM, Strain/Indicator: TA1535, Metabolic Activation: RAT, LIVER, S-9, AROCLOR 1254, Method: STANDARD PLATE): inactive; negative | mutagenic call (Test System: AMES SALMONELLA TYPHIMURIUM, Strain/Indicator: TA1537, Metabolic Activation: HAMSTER, LIVER, S-9, AROCLOR 1254, Method: STANDARD PLATE): inactive; negative | mutagenic call (Test System: AMES SALMONELLA TYPHIMURIUM, Strain/Indicator: TA1537, Metabolic Activation: MOUSE, LIVER, S-9, AROCLOR 1254, Method: STANDARD PLATE): inactive; negative | mutagenic call (Test System: AMES SALMONELLA TYPHIMURIUM, Strain/Indicator: TA1537, Metabolic Activation: NONE, Method: STANDARD PLATE): inactive; negative | mutagenic call (Test System: AMES SALMONELLA TYPHIMURIUM, Strain/Indicator: TA1537, Metabolic Activation: RAT, LIVER, S-9, AROCLOR 1254, Method: STANDARD PLATE): inactive; negative | mutagenic call (Test System: AMES SALMONELLA TYPHIMURIUM, Strain/Indicator: TA1538, Metabolic Activation: HAMSTER, LIVER, S-9, AROCLOR 1254, Method: STANDARD PLATE): inactive; negative | mutagenic call (Test System: AMES SALMONELLA TYPHIMURIUM, Strain/Indicator: TA1538, Metabolic Activation: MOUSE, LIVER, S-9, AROCLOR 1254, Method: STANDARD PLATE): inactive; negative | mutagenic call (Test System: AMES SALMONELLA TYPHIMURIUM, Strain/Indicator: TA1538, Metabolic Activation: NONE, Method: STANDARD PLATE): inactive; negative | mutagenic call (Test System: AMES SALMONELLA TYPHIMURIUM, Strain/Indicator: TA1538, Metabolic Activation: RAT, LIVER, S-9, AROCLOR 1254, Method: STANDARD PLATE): inactive; negative | mutagenic call (Test System: CHINESE HAMSTER V-79, Strain/Indicator: V-79/6-THIOGUANINE, Metabolic Activation: HAMSTER, LIVER, S-9, AROCLOR 1254, Method: SUSPENSION/PLATE): active; positive | mutagenic call (Test System: CHINESE HAMSTER V-79, Strain/Indicator: V-79/6-THIOGUANINE, Metabolic Activation: NONE, Method: SUSPENSION/PLATE): inactive; negative | mutagenic call (Test System: CHINESE HAMSTER V-79, Strain/Indicator: V-79/6-THIOGUANINE, Metabolic Activation: RAT, LIVER, S-9, PHENOBARBITAL AND BETA-NAPHTHOFLAVONE, Method: SUSPENSION/PLATE): inactive; negative | mutagenic call (Test System: E. COLI, Strain/Indicator: WP2 UVRA, Metabolic Activation: HAMSTER, LIVER, S-9, AROCLOR 1254, Method: STANDARD PLATE): inactive; negative | mutagenic call (Test System: E. COLI, Strain/Indicator: WP2 UVRA, Metabolic Activation: HAMSTER, LIVER, S-9, Method: STANDARD PLATE): inactive; negative | mutagenic call (Test System: E. COLI, Strain/Indicator: WP2 UVRA, Metabolic Activation: MOUSE, LIVER, S-9, AROCLOR 1254, Method: STANDARD PLATE): inactive; negative | mutagenic call (Test System: E. COLI, Strain/Indicator: WP2 UVRA, Metabolic Activation: MOUSE, LIVER, S-9, Method: STANDARD PLATE): inactive; negative | mutagenic call (Test System: E. COLI, Strain/Indicator: WP2 UVRA, Metabolic Activation: NONE, Method: STANDARD PLATE): inactive; negative | mutagenic call (Test System: E. COLI, Strain/Indicator: WP2 UVRA, Metabolic Activation: RAT, LIVER, S-9, AROCLOR 1254, Method: STANDARD PLATE): inactive; negative | mutagenic call (Test System: E. COLI, Strain/Indicator: WP2 UVRA, Metabolic Activation: RAT, LIVER, S-9, Method: STANDARD PLATE): inactive; negative
